Results reported in publication PMC9321722, “Tailored Pyridoxal Probes Unravel Novel Cofactor‐Dependent Targets and Antibiotic Hits in Critical Bacterial Pathogens” (Angewandte Chemie (International Ed. in English), 2022).

Legend:
PA2683 [1] = molecular target: T1, PA2683 (Pseudomonas aeruginosa, UniProt Q9I0F5); test: coupled NADH assay and LC-MS/MS of products; assay type: biochemical
T1 sequence (Q9I0F5 1-320): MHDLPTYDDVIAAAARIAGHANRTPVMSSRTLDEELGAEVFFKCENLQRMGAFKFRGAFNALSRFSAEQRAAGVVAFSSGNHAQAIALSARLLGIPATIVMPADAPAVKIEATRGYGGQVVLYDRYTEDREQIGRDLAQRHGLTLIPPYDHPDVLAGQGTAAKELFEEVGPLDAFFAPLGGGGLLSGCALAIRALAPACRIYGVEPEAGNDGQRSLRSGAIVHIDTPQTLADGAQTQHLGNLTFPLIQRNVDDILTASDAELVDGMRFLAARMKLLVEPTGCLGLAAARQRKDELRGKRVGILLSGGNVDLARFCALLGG

pdxK = molecular target: T2, pdxK (Escherichia coli, UniProt P40191); test: UV/Vis phosphorylation assay; assay type: biochemical
T2 construct: pyridoxal kinase used in UV/Vis phosphorylation assay
T2 sequence (P40191 whole entry): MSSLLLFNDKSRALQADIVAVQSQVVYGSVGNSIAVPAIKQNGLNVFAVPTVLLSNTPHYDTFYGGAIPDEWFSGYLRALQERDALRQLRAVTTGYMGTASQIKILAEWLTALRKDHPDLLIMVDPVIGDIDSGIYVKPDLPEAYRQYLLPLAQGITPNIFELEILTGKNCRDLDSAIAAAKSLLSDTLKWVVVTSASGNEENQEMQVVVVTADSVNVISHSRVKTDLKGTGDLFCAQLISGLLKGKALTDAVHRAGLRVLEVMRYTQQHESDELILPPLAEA

SaPLK = molecular target: T3, SaPLK (Staphylococcus aureus, UniProt Q5HI96); test: UV/Vis phosphorylation assay; assay type: biochemical
T3 construct: gene pdxK; pyridoxal kinase used in UV/Vis phosphorylation assay
T3 sequence (Q5HI96 1-276): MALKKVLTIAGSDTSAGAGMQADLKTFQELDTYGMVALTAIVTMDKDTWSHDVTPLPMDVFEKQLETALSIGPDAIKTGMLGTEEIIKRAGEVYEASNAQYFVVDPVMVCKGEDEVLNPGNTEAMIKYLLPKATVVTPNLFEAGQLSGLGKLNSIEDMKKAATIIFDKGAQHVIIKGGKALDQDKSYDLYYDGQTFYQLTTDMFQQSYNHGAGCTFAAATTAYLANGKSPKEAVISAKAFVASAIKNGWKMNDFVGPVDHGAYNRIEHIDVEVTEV

PA2683 [2] = molecular target: T1, PA2683; test: acceleration of serine/threonine dehydratase activity of overexpressed enzyme; assay type: biochemical
[3] = molecular target: T4, A0A0H2XHJ5 (cysteine desulfurase, sufS) (Staphylococcus aureus, UniProt A0A0H2XHJ5); test: LC-MS quantification of alanine formed from L-Cys by overexpressed enzyme; assay type: biochemical
T4 construct: with sufU
T4 sequence (A0A0H2XHJ5 entry or part of it): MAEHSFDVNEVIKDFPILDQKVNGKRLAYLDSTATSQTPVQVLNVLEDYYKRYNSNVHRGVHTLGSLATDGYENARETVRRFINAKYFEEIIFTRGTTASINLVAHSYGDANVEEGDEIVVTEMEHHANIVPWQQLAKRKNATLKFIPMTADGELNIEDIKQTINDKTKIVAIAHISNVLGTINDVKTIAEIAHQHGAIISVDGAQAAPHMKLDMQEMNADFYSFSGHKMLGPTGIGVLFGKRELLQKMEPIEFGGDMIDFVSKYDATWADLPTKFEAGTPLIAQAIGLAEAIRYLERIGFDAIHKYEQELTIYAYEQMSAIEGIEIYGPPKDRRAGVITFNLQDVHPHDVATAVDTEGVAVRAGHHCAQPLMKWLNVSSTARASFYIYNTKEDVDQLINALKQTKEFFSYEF
T4 sequence (A0A0H2XJC0 entry or part of it, further chain): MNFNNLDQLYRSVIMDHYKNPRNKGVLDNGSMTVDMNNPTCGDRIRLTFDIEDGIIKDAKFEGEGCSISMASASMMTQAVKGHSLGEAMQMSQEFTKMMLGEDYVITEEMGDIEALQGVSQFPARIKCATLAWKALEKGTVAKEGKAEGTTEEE

[4] = molecular target: T5, Orn/Lys/Arg decarboxylase (A0A0H2XII6) (Staphylococcus aureus, UniProt A0A0H2XII6); test: LC-MS/MS quantification of cadaverine formed by overexpressed enzyme; also competitive PL2 profiling in cells; assay type: biochemical
T5 construct: gene SAUSA300_0458
T5 sequence (A0A0H2XII6 entry or part of it): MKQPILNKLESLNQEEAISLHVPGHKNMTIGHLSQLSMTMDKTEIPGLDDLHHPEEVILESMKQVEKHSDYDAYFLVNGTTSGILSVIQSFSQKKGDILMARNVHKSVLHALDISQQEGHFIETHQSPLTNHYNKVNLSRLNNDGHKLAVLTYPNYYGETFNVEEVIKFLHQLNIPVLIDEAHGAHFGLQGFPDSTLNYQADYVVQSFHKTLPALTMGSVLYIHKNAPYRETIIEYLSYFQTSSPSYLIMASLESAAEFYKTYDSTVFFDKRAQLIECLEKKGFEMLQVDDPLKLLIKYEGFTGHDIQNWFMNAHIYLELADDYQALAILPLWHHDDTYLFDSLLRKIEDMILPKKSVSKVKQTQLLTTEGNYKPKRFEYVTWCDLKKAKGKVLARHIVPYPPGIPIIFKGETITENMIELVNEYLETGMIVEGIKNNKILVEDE

[5] = molecular target: T6, PA3659 (aminotransferase) (Pseudomonas aeruginosa, UniProt Q9HXY0); test: intact protein MS; UV/Vis of holo-enzyme; assay type: binding
T6 sequence (Q9HXY0 1-402): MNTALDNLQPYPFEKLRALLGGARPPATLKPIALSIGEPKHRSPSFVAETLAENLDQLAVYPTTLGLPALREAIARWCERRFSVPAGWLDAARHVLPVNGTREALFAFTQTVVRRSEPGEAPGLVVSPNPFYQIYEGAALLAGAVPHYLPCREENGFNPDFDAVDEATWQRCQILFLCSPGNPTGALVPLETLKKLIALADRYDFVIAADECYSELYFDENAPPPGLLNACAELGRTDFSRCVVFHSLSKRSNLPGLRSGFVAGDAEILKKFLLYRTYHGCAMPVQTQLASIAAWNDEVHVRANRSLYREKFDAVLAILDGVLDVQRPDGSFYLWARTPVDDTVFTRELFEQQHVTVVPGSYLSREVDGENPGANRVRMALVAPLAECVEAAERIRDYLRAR

ydcR = ydcR (Escherichia coli, UniProt P77730); test: intact protein MS of overexpressed protein; assay type: binding
ydcR, sequence (P77730 whole entry): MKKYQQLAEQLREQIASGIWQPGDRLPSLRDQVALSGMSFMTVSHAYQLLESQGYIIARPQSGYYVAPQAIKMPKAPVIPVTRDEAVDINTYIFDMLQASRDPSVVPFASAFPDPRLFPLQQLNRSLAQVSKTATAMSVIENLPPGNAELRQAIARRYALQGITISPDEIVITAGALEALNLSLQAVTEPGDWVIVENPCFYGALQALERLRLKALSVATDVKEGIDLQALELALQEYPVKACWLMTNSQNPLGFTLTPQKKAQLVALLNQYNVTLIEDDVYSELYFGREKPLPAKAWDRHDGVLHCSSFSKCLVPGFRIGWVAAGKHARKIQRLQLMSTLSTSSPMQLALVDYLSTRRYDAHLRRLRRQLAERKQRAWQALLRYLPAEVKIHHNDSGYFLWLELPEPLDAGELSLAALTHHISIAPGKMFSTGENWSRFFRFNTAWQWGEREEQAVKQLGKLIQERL

[6] = molecular target: T7, PA3798 (aminotransferase) (Pseudomonas aeruginosa, UniProt Q9HXJ9); test: intact protein MS; UV/Vis of holo-enzyme; assay type: binding
T7 sequence (Q9HXJ9 1-382): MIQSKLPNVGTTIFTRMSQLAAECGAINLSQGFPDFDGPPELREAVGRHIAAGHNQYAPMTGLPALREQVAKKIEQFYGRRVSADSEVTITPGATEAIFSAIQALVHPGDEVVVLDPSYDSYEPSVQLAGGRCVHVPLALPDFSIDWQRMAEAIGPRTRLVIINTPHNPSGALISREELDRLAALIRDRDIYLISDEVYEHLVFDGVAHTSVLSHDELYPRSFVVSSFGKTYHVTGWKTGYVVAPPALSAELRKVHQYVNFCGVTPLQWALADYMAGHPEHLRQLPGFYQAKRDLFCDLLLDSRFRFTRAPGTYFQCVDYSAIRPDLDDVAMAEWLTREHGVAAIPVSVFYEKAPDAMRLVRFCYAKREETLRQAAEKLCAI

PA2683 [7] = molecular target: T1, PA2683; test: intact protein MS of overexpressed protein; assay type: binding

## N[C@@H](CO)C(=O)O [L-serine]
PA2683 [1]
  coupled NADH assay and LC-MS/MS of products: The enzyme was overexpressed and indeed turnover of L‐serine was observed together with NADH consumption within a coupled assay

## C#CCCc1ncc(CO)c(C=O)c1O [PL2]
pdxK
  UV/Vis phosphorylation assay: we observed phosphorylation of all probes except for PL11 and PL12

## C#Cc1nc(C)c(O)c(C=O)c1CO [PL10]
SaPLK
  UV/Vis phosphorylation assay: we observed phosphorylation of all probes except for PL11 and PL12
pdxK
  UV/Vis phosphorylation assay: we observed phosphorylation of all probes except for PL11 and PL12

## Nc1ncnc2c1ncn2[C@@H]1O[C@H](COP(=O)(O)O)[C@@H](O)[C@H]1O [adenosine monophosphate]
PA2683 [2]
  acceleration of serine/threonine dehydratase activity of overexpressed enzyme: the catalysis was accelerated by adding adenosine monophosphate (AMP) and magnesium

## NNCCc1ccccc1 [phenelzine]
[3]
  IC50: 14.7 ± 1.22 µM
[4]
  IC50: 53.1 ± 1.05 µM

## Cc1ncc(COP(=O)(O)O)c(C=O)c1O [pyridoxal phosphate]
[5]
  intact protein MS; UV/Vis of holo-enzyme: PLP binding of all overexpressed enzymes was confirmed via intact protein MS (IP‐MS, Figure 4A)
ydcR
  intact protein MS of overexpressed protein: PLP binding of all overexpressed enzymes was confirmed via intact protein MS (IP‐MS, Figure 4A)
[6]
  intact protein MS; UV/Vis of holo-enzyme: PLP binding of all overexpressed enzymes was confirmed via intact protein MS (IP‐MS, Figure 4A)
PA2683 [7]
  intact protein MS of overexpressed protein: PLP binding of all overexpressed enzymes was confirmed via intact protein MS (IP‐MS, Figure 4A)
